Holding throughout (assay): NCI-60 cell line screen, 48 h
Assay [1] concerns 786-0 renal.
Assay [2] deals with ACHN renal.
The test system of assay [3] is HS 578T breast.
In assay [4] the test system is M14 melanoma.
Assay [5] has as its system OVCAR-5 ovarian.
Assay [6] has as its system RPMI-8226 leukemia.
Assay [7] concerns SF-268 CNS.
The subject of assay [8] is SK-MEL-2 melanoma.
The test system of assay [9] is T-47D breast.
Assay [10] deals with U251 CNS.
Assay [11] relates to UACC-62 melanoma.
The subject of assay [12] is MALME-3M melanoma.

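The compound was tested at five concentrations on cells cultured in 96-well plates, with a 48-hour exposure period. At the TGI there is no net growth.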

For the compound `CCSC1=N/C(=C\c2ccco2)C(Cl)=N1`, the TGI in [1], in assay [2], in assay [3], in [4], in assay [5] and in assay [6] was over 100 µM in each case. Moreover, the TGI in assay [7], in assay [8], in assay [9], in [10] and in assay [11] was over 100 µM each time.
Consider `O=c1oc2ccccc2c(O)c1C(c1ccc(/C=C/c2ccccc2)cc1)c1c(O)c2ccccc2oc1=O`, for which the TGI in assay [1] was 63.8 µM; in [2] it was 35.6 µM; in assay [3] it was 75.4 µM; in assay [12], 65.7 µM; in [6], over 100 µM; in [7], 64.9 µM. Further, the TGI is over 100 µM in [8], over 100 µM in [9], 43.9 µM in [10] and over 100 µM in assay [11].
As to `Cc1ccc(SCC(CF)OCn2cc(F)c(=O)[nH]c2=O)cc1` (configuration not stated), the TGI in assay [1], in assay [2], in assay [3], in assay [4], in assay [12] and in assay [5] was over 100 µM each time. The TGI in assay [6], in assay [7], in [8], in assay [9] and in assay [10] was over 100 µM each time.
As for `CC1=NN(c2nc(N)nc(CSCc3nc(N)nc(N(C)C)n3)n2)C(C)(C)C1`, the TGI in assay [1], in assay [2], in assay [3], in assay [4], in [5] and in assay [6] was over 100 µM in each case. Besides, the TGI in [7], in [8], in assay [9], in assay [10] and in [11] was over 100 µM in each case.
As for `N#Cc1sc2c(c1OC(=O)c1cccs1)c(=O)n(-c1ccccc1)c(=S)n2-c1ccccc1`, the TGI was determined as 90.6 µM in [1]; 43.6 µM in assay [3]; 38.2 µM in assay [4]; 40.7 µM in assay [12]; 49.6 µM in assay [6]; 86 µM in assay [7]. Also, the TGI was found to be 51 µM in [8], 34.1 µM in assay [9], 55.5 µM in [10] and 35.2 µM in assay [11].
In the case of `O=c1oc2ccccc2nc1/C=C(\O)c1ccc([N+](=O)[O-])cc1`, the TGI is over 100 µM in [1]; over 100 µM in assay [2]; 95.1 µM in assay [3]; over 100 µM in [4]; over 100 µM in [12]; over 100 µM in [5]. The TGI in [7], in [8], in assay [9], in [10] and in assay [11] was over 100 µM in each case.
`O=C1c2c(ccc3c2CCC3)CC12Cc1cc3c(cc1C2)CCC3`: the TGI in assay [1], in assay [2], in assay [3], in assay [4], in assay [12] and in [5] was over 100 µM each time. Also, the TGI in [6], in assay [7], in [8], in assay [9] and in assay [10] was over 100 µM in each case.
For the compound `O=c1c2cc([N+](=O)[O-])ccc2n2n1Cc1ccccc1C2`, the TGI in [1], in assay [2], in assay [3], in [12], in assay [6] and in assay [7] was over 100 µM throughout. Moreover, the TGI in assay [9], in [10] and in assay [11] was over 100 µM each time.
As to `O=c1[nH]nc(Cc2ccccc2)n1/N=C/c1ccccc1Cl`, the TGI in [1], in assay [2], in [3], in [12], in assay [5] and in assay [6] was over 100 µM each time. For the same compound, the TGI in assay [7], in [8], in assay [9], in assay [10] and in [11] was over 100 µM each time.
Turning to `O=C(CCc1ccc(O)cc1)NCCc1cccc(OCc2ccccc2)c1`, the TGI in assay [1] is over 100 µM; in assay [2], over 100 µM; in [3], over 100 µM; in [4], 36.2 µM; in [12], 79.6 µM; in assay [5], over 100 µM. Further, the TGI was over 100 µM in [7]; 39.1 µM in assay [8]; 67.7 µM in [9]; 64.9 µM in assay [10]; 34 µM in [11].
As to `COc1ccc(C2=C(N)c3c(OC)cccc3C2=O)cc1`, the TGI in assay [1], in assay [3], in assay [4], in assay [12], in assay [5] and in assay [6] was over 100 µM each time. Moreover, the TGI in [7], in assay [8], in assay [9], in [10] and in [11] was over 100 µM in each case.
As to `CN(C)C(=O)Nc1cc2c3c(c1)CCCN3CCC2`, the TGI in [1], in assay [2], in assay [3], in assay [4], in assay [12] and in assay [6] was over 10 µM throughout. Further, the TGI in assay [7], in assay [8], in assay [9], in assay [10] and in assay [11] was over 10 µM in each case.
On to `COC(=O)c1ccccc1/C=C1\Cc2cc(C)cc(C)c2C1=O`, for which the TGI in assay [1], in [2], in assay [3], in assay [12], in assay [5] and in assay [6] was over 100 µM throughout. The TGI in [7], in [8], in assay [9], in assay [10] and in [11] was over 100 µM each time.
Take `CCOC(=O)[C@@H]1ON2O[C@H](OC3CCCC3(c3ccccc3)c3ccccc3)C[C@H]3OC(=O)[C@@H]1C32` (some centres not stated): the TGI in [1], in assay [2], in [3], in assay [4], in assay [5] and in [6] was over 100 µM in each case. For the same compound, the TGI in assay [7] is over 100 µM; in assay [9], 80 µM; in [10] it was over 100 µM; in assay [11], over 100 µM.
Consider `COC1=C(N2CC2)C(=O)c2nc3n(c2C1=O)CCC3`, for which the TGI amounted to 1.03 µM in assay [1]; 0.851 µM in [2]; 31.3 µM in assay [3]; 0.619 µM in assay [4]; 0.827 µM in [12]; 3.46 µM in [5]. Moreover, the TGI in assay [6] was determined as 0.336 µM; in [7], 5.23 µM; in assay [9] it was 4.15 µM; in [10] it was 2.86 µM; in [11], 3.12 µM.
With `Cc1nn(-c2ccccc2)c2[nH]c(=S)cnc12`, the TGI in [1], in assay [3], in assay [4], in assay [12], in [5] and in assay [6] was over 100 µM in each case. Also, the TGI in assay [7], in [8], in [9], in [10] and in assay [11] was over 100 µM throughout.
With `COc1ccc2c(c1)CCc1[nH]c3ccccc3c1CCCC2`, the TGI in assay [1], in [2], in assay [3], in assay [4], in [12] and in [5] was over 10 µM in each case. The TGI in [6], in assay [7], in assay [9], in assay [10] and in assay [11] was over 10 µM throughout.
`O=[N+]([O-])c1ccc2[nH]ncc2c1Cl`: the TGI in assay [1] is over 100 µM; in assay [2] it was 51.5 µM; in assay [3], 59.3 µM; in assay [5] it was 62.5 µM; in [6] it was 61.2 µM; in assay [8] it was 40.4 µM. Besides, the TGI in [9] was 44.4 µM; in assay [10], over 100 µM; in assay [11], over 100 µM.
For the compound `CC1=C(C(=O)NCCc2ccccc2)CC(C(=O)NCCc2ccccc2)=C(C)N1`, the TGI in [1], in [2], in assay [3], in [4], in assay [5] and in assay [6] was over 100 µM each time. The TGI in assay [7], in [8], in assay [9], in assay [10] and in assay [11] was over 100 µM each time.
Take `Cc1cccc(C)c1NC(=S)NC=C(C(N)=O)C(N)=O`: the TGI in assay [1], in assay [2], in [3], in assay [4], in assay [5] and in assay [6] was over 100 µM throughout. In addition, the TGI in [7], in assay [8], in [9], in assay [10] and in assay [11] was over 100 µM in each case.
For `O=C(O)c1ccc(Nc2nc3ccccc3nc2-c2cccs2)cc1`, the TGI in [1], in assay [2], in assay [3], in assay [12], in assay [5] and in assay [6] was over 100 µM throughout. Besides, the TGI in assay [7], in [9], in assay [10] and in assay [11] was over 100 µM throughout.
As to `c1ccc(Nc2nnc(Cn3ccc4ccccc43)s2)cc1`, the TGI in assay [1], in assay [2], in assay [3], in assay [4], in [5] and in assay [6] was over 100 µM each time. Besides, the TGI in assay [7], in [8], in assay [9], in assay [10] and in assay [11] was over 100 µM in each case.
As for `OC(C/C(=N\N1CCCCC1)c1cccs1)(C(F)(F)F)C(F)(F)F`, the TGI in assay [1], in assay [2], in assay [3], in assay [4], in [12] and in [6] was over 10 µM throughout. For the same compound, the TGI in assay [7], in assay [8], in [9], in assay [10] and in [11] was over 10 µM each time.
`COc1cc(NP(=O)(Oc2ccccc2)Oc2ccccc2)ccc1Nc1c2ccccc2nc2c1[nH]c1ccccc12`: the TGI in assay [1] worked out at 1.58 µM; in assay [2], 11.9 µM; in [3], 98.1 µM; in [4], 7.02 µM; in assay [12], 29.1 µM; in assay [5] it was 30.2 µM. Besides, the TGI in assay [7] was over 100 µM; in [8], 22.6 µM; in [9] it was 12.7 µM; in assay [10] it was 6.85 µM; in assay [11], 8.58 µM.
In the case of `COc1cc(Nc2cnc3cc(F)c(F)cc3n2)cc(OC)c1`, the TGI in assay [1], in [2], in [3], in [4], in [12] and in [5] was over 100 µM in each case. Also, the TGI in assay [7], in [8], in [9], in [10] and in [11] was over 100 µM throughout.

The record behind these values is PubChem BioAssay (NCI).
